The target of one experiment is T1, human TLR7 (Homo sapiens, UniProt Q9NYK1).
T1 sequence (Q9NYK1 27-1049): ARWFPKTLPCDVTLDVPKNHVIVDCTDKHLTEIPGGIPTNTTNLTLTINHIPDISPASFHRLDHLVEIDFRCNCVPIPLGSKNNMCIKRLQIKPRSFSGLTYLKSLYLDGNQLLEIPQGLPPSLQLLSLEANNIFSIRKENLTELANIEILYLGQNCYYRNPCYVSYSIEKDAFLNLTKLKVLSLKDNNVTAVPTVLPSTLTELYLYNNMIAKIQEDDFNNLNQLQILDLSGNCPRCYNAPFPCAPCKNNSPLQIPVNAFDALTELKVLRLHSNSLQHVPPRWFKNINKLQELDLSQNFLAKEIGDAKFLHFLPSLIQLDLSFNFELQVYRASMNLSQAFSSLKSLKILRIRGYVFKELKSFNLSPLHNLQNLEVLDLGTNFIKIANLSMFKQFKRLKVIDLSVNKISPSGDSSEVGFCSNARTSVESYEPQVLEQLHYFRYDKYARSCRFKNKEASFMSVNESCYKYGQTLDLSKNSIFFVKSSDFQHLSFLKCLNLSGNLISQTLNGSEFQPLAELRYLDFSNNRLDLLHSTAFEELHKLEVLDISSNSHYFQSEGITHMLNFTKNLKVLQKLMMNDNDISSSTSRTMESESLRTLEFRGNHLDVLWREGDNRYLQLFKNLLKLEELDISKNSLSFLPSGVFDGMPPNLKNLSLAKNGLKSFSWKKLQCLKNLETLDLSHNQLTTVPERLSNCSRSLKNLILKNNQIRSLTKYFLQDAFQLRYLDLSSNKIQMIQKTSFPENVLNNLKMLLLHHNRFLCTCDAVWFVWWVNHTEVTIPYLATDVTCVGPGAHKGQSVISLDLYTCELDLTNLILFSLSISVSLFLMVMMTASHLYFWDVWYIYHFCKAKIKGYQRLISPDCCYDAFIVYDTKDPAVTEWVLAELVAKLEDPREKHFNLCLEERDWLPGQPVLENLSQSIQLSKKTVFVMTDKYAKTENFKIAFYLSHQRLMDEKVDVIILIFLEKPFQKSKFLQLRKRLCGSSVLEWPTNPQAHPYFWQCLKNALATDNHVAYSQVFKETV
Description: HEK-Blue hTLR7 SEAP reporter gene inhibition assay. It counts as cell-based. Particulars: read-out: HEK-Blue hTLR7 IC50. An outline of the steps: (§1)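 HEK-Blue cells stably expressing hTLR7 (80,000/well) or hTLR8 (60,000/well), SEAP under IFN-β minimal promoter with five NF-κB/AP-1 sites. Compounds (0.001–36 µM final) preincubated 15 min, then 10 µM ligand (Gardiquimod for TLR7) for 20 h. SEAP read with Quanti-Blue; IC50 calculated.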
For orientation: A reporter such as luciferase makes a cellular process visible.

For the next experiment, the target named is T2, human TLR8 (Homo sapiens, UniProt Q9NR97).
T2 construct: expressed in transfected cells
T2 sequence (Q9NR97 27-1041): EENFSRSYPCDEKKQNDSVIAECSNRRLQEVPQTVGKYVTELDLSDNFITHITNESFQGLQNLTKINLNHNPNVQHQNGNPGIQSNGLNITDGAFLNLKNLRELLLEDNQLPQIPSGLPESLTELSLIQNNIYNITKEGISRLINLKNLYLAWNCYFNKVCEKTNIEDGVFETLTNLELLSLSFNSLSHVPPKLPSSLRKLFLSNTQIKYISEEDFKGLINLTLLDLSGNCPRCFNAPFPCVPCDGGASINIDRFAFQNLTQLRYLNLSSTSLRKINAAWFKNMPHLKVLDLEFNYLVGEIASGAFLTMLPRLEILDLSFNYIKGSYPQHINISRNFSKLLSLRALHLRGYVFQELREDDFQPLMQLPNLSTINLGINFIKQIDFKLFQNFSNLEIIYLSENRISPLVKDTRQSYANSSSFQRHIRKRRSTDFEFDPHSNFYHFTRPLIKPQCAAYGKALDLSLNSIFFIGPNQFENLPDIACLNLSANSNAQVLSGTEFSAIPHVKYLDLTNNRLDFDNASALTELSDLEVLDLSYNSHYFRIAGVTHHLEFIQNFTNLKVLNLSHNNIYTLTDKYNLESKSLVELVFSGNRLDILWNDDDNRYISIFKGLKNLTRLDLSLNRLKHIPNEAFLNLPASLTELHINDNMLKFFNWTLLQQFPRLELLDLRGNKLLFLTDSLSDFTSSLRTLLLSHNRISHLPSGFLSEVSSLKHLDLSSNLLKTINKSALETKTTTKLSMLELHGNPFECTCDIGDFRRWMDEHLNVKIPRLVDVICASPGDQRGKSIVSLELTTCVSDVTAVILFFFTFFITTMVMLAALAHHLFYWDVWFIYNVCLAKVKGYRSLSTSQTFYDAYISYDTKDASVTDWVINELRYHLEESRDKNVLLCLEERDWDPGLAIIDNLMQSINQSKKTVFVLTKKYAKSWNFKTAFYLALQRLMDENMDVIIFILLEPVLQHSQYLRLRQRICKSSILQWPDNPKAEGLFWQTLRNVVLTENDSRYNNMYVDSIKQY
Nature of the experiment: HEK-Blue hTLR8 SEAP reporter gene inhibition assay. Particulars: read-out: HEK-Blue hTLR8 IC50. It counts as cell-based. An outline of the steps:
as §1

[1] abbreviates: hTLR7 HEK-Blue cells, TLR7 ligand Gardiquimod 10 µM, 20 hours, SEAP by Quanti-blue, class symbols.
[2] abbreviates: hTLR8 HEK-Blue cells, TLR8 ligand 10 µM, 20 hours, SEAP by Quanti-blue, class symbols.

Where two headings read alike, the source gives them in different places.

Consider `C[C@@H]1CN(c2ccc(C#N)n3ncc(F)c23)Cc2c3c(nn21)CN(CC(=O)N[C@H]1CNC[C@H]1F)[C@@H](C)C3` [Example I-106, 2-((4R,9S)-2-(7-cyano-3-fluoropyrazolo[1,5-a]pyridin-4-yl)-4,9-dimethyl-1,2,3,4,9,10-hexahydropyrido[3',4':3,4]pyrazolo[1,5-a]pyrazin-8(7H)-yl)-N-((3S,4R)-4-fluoropyrrolidin-3-yl)acetamide], for which the IC50 (in general, the concentration that inhibits the measured activity by half) is under 50 nM on human TLR7 (setting [1]) and under 100 nM on human TLR8 (setting [2]).

Take “4-((4R,9S)-8-(D-prolyl)-4,9-dimethyl-3,4,7,8,9,10-hexahydropyrido [3',4':3,4] pyrazolo [1,5-a]pyrazin-2(1H)-yl)-3-fluoropyrazolo[1,5-a]pyridine-7-carbonitrile [Example I-120]”: the values for the IC50 at human TLR7 (setting [1]) and on human TLR8 (setting [2]) were over 50 nM and under 100 nM, respectively.

For the molecule `C[C@@H]1CN(c2ccc(C#N)n3ncc(F)c23)Cc2c3c(nn21)CN(CC1(C(N)=O)CC1)[C@@H](C)C3` [Example I-204, 1-(((4R,9S)-2-(7-cyano-3-fluoropyrazolo [1,5-a]pyridin-4-yl)-4,9-dimethyl-1,2,3,4,9,10-hexahydropyrido[3',4':3,4]pyrazolo[1,5-a]pyrazin-8(7H)-yl)methyl)cyclopropane-1-carboxamide], the IC50 at human TLR7 (setting [1]) is under 50 nM; at human TLR8 (setting [2]), over 100 nM.

Take `C[C@@H]1CN(c2ccc(C#N)n3ncc(F)c23)Cc2c3c(nn21)CNC(Cc1ccn[nH]1)C3` (stereo partly drawn) [Example I-79, 4-((4R)-9-((1H-pyrazol-5-yl)methyl)-4-methyl-3,4,7,8,9,10-hexahydropyrido[3',4':3,4]pyrazolo[1,5-a]pyrazin-2(1H)-yl)-3-fluoropyrazolo[1,5-a]pyridine-7-carbonitrile]: the figures for the IC50 at human TLR7 (setting [1]) and on human TLR8 (setting [2]) were under 50 nM and under 100 nM, respectively.

Consider `C[C@@H]1CN(c2ccc(C#N)n3ncc(F)c23)Cc2c3c(nn21)CN(C1CCOC1)[C@@H](C)C3` (stereo partly drawn) [Example I-142, 4-((4R,9S)-4,9-dimethyl-8-(tetrahydrofuran-3-yl)-3,4,7,8,9,10-hexahydropyrido [3',4':3,4]pyrazolo[1,5-a]pyrazin-2(1H)-yl)-3-fluoropyrazolo[1,5-a]pyridine-7-carbonitrile], for which the IC50 at human TLR7 (setting [1]) is under 50 nM; on human TLR8 (setting [2]), over 100 nM.

With `C[C@@H]1CN(c2ccc(C#N)n3ncc(F)c23)Cc2c3c(nn21)CN(C[C@@](C)(O)CO)[C@@H](C)C3` [Example I-224, 4-((4R,9S)-8-((R)-2,3-dihydroxy-2-methylpropyl)-4,9-dimethyl-3,4,7,8,9,10-hexahydropyrido[3',4':3,4]pyrazolo[1,5-a]pyrazin-2(1H)-yl)-3-fluoropyrazolo[1,5-a]pyridine-7-carbonitrile], the values for the IC50 on human TLR7 (setting [1]) and at human TLR8 (setting [2]) were under 50 nM and under 100 nM, respectively.

On to `C[C@@H]1Cc2c(nn3c2CN(c2ccc(C#N)n4ncc(F)c24)C[C@H]3C)[C@H](C)N1CC(N)=O` [Example I-165, 2-((4R,7S,9R)-2-(7-cyano-3-fluoropyrazolo[1,5-a]pyridin-4-yl)-4,7,9-trimethyl-1,2,3,4,9,10-hexahydropyrido[3',4':3,4]pyrazolo[1,5-a]pyrazin-8(7H)-yl)acetamide], for which the IC50 on human TLR7 (setting [1]) is under 50 nM; at human TLR8 (setting [2]), over 100 nM.

Turning to `C[C@@H]1CN(c2ccc(C#N)n3ncc(F)c23)Cc2c3c(nn21)C[C@@](C)(N1CCC(O)C1)CC3` (stereo partly drawn) [Example I-188, 3-Fluoro-4-((4R,8S)-8-(3-hydroxypyrrolidin-1-yl)-4,8-dimethyl-3,4,7,8,9,10-hexahydropyrazino[1,2-b]indazol-2(1H)-yl)pyrazolo[1,5-a]pyridine-7-carbonitrile], the IC50 on human TLR7 (setting [1]) is over 50 nM; at human TLR8 (setting [2]), under 100 nM.

As for “3-((4R,9S)-2-(7-cyano-3-fluoropyrazolo[1,5-a]pyridin-4-yl)-4,9-dimethyl-1,2,3,4,9,10-hexahydropyrido[3',4':3,4]pyrazolo[1,5-a]pyrazin-8(7H)-yl)cyclobutane-1-carboxamide [Example I-164]”, the IC50 on human TLR7 (setting [1]) is under 50 nM; at human TLR8 (setting [2]), over 100 nM.

In the case of `C[C@@H]1CN(c2ccc(C#N)n3ncc(F)c23)Cc2c3c(nn21)CNCC3` [Example I-5, (R)-3-fluoro-4-(4-methyl-3,4,7,8,9,10-hexahydropyrido[3',4':3,4]pyrazolo[1,5-a]pyrazin-2(1H)-yl)pyrazolo[1,5-a]pyridine-7-carbonitrile], the IC50 was under 50 nM on human TLR7 (setting [1]) and under 100 nM at human TLR8 (setting [2]).

With `C[C@@H]1Cc2c(nn3c2CN(c2ccc(C#N)n4ncc(F)c24)C[C@H]3C)[C@H](C)N1` [Example I-59, 3-Fluoro-4-((4R,7S,9R)-4,7,9-trimethyl-3,4,7,8,9,10-hexahydropyrido[3',4':3,4]pyrazolo[1,5-a]pyrazin-2(1H)-yl)pyrazolo[1,5-a]pyridine-7-carbonitrile], the 50% inhibitory concentration (IC50) at human TLR7 (setting [1]) was under 50 nM; at human TLR8 (setting [2]) it was over 100 nM.

Take `C[C@@H]1CN(c2ccc(C#N)n3ncc(F)c23)Cc2c3c(nn21)CN(C[C@](C)(O)CO)[C@@H](C)C3` [Example I-226, 4-((4R,9S)-8-((S)-2,3-dihydroxy-2-methylpropyl)-4,9-dimethyl-3,4,7,8,9,10-hexahydropyrido[3',4':3,4]pyrazolo[1,5-a]pyrazin-2(1H)-yl)-3-fluoropyrazolo[1,5-a]pyridine-7-carbonitrile]: the IC50 on human TLR7 (setting [1]) is under 50 nM; on human TLR8 (setting [2]), over 100 nM.

For `C[C@@H]1CN(c2ccc(C#N)n3ncc(F)c23)Cc2c3c(nn21)[C@@H](C)NCC3` [Example I-21, 4-((4R,7R)-4,7-dimethyl-3,4,7,8,9,10-hexahydropyrido[3',4':3,4]pyrazolo[1,5-a]pyrazin-2(1H)-yl)-3-fluoropyrazolo[1,5-a]pyridine-7-carbonitrile], the values for the IC50 on human TLR7 (setting [1]) and at human TLR8 (setting [2]) were under 50 nM and under 100 nM, respectively.

As for `C[C@@H]1CN(c2ccc(C#N)n3ncc(F)c23)Cc2c3c(nn21)CN([C@H]1CCNC1=O)[C@@H](C)C3` [Example I-157, 4-((4R,9S)-4,9-dimethyl-8-((S)-2-oxopyrrolidin-3-yl)-3,4,7,8,9,10-hexahydropyrido[3',4':3,4]pyrazolo[1,5-a]pyrazin-2(1H)-yl)-3-fluoropyrazolo[1,5-a]pyridine-7-carbonitrile], the values for the IC50 on human TLR7 (setting [1]) and on human TLR8 (setting [2]) were over 50 nM and over 100 nM, respectively.

Regarding `C[C@@H]1CN(c2ccc(C#N)n3ncc(F)c23)Cc2c3c(nn21)CN(CC(=O)N1CCC1)[C@@H](C)C3` [Example I-138, 4-((4R,9S)-8-(2-(azetidin-1-yl)-2-oxoethyl)-4,9-dimethyl-3,4,7,8,9,10-hexahydropyrido [3',4':3,4]pyrazolo[1,5-a]pyrazin-2(1H)-yl)-3-fluoropyrazolo[1,5-a]pyridine-7-carbonitrile], the IC50 is under 50 nM on human TLR7 and over 100 nM at human TLR8.

(Values after patent publication EP4644396A1 (Visionpharma (Nantong) Co., Ltd, priority 2022, dated 2024).)
